# Test results from ChEMBL document CHEMBL3596163, “Discovery of imidazo[1,5-a]pyridines and -pyrimidines as potent and selective RORc inverse agonists” (Bioorg Med Chem Lett, 2015).
# How the values were obtained:
# MDCK = test: Efflux ratio of apparent permeability from apical to basolateral side over basolateral to apical side in MDCK cells at 2 uM by LC-MS/MS analysis; assay type: ADME, cell-based, Canis lupus familiaris; settings: dog
# [1] = Plasma protein binding in human at 5 uM after 4 hrs by equilibrium dialysis method; assay type: ADME, cell-free; settings: read-out: PPB
# [2] = Cmax in Sprague-Dawley rat at […], po; assay type: ADME, organism-based; parameters: dose 1.5 mg/kg, route oral; settings: in vivo
# [3] = Apparent permeability from apical to basolateral side in MDCK cells at 2 uM by LC-MS/MS analysis; assay type: ADME, cell-based, Canis lupus familiaris; settings: dog
# [4] = Half life in Sprague-Dawley rat at 0.5 mg/kg, iv; assay type: ADME, organism-based; settings: in vivo
# [5] = Plasma protein binding in rat at 5 uM after 4 hrs by equilibrium dialysis method; assay type: ADME, cell-free; settings: read-out: PPB
# [6] = AUC in Sprague-Dawley rat at […], po; assay type: ADME, organism-based; settings: in vivo
# [7] = Plasma clearance in Sprague-Dawley rat at 0.5 mg/kg, iv; assay type: ADME, organism-based
# [8] = Kinetic aqueous solubility of the compound in PBS buffer at 23 degC after 24 hrs by LC/CLND analysis; assay type: physicochemical; settings: read-out: Kinetic_solubility
# [9] = Oral bioavailability in Sprague-Dawley rat at […]; assay type: ADME, organism-based; settings: in vivo
# [10] = Apparent permeability from basolateral to apical side in MDCK cells at 2 uM by LC-MS/MS analysis; assay type: ADME, cell-based, Canis lupus familiaris; settings: dog
# [11] = Volume of distribution in Sprague-Dawley rat at 0.5 mg/kg, iv; assay type: ADME, organism-based; settings: in vivo
Compound,Ratio (MDCK),"fraction unbound at 4 h, 5 µM [1]",Cmax [2] [nM],Papp A→B at 2 µM [3] [×10⁻⁶ cm/s],half-life [4] [min],"fraction unbound at 4 h, 5 µM [5]",AUC [6] [µM·h],clearance [7] [mL/min/kg],solubility kinetic at 24 h [8] [µM],bioavailability [9] [%],Papp B→A at 2 µM [10] [×10⁻⁶ cm/s],Vd [11] [L/kg]
O=C(O)c1ccc(-c2nc(C(=O)c3c(Cl)cccc3C(F)(F)F)n3ccccc23)cc1O,< 2,< 0.01,70,12,12,< 0.01,0.25,130,86,40,10,1.2
O=C(O)c1ccc(-c2nc(C(=O)c3c(Cl)cccc3C3CC3)n3cccnc23)cc1O,< 2,0.01,,8,,0.01,,,45,,15,
